{"source": "paper PMC8043142", "about": "(Journal of medicinal chemistry, 2021)", "key": {"[1]": {"target": "disulfide stabilized HIV-1NL4-3 CA hexamer (Human immunodeficiency virus type 1 group M subtype B, UniProt P12493, A146C/E177C/M317A/W316A)", "test": "SPR direct interaction analysis with immobilized CA hexamer", "format": "binding", "conditions": "for kd: SPR, 25 °C, 1:1 binding model"}, "[2]": {"test": "Metabolic stability in human liver microsomes", "conditions": "half-life relative to S-PF-74"}, "[3]": {"conditions": "enantiomerically pure compounds"}}}
{"compound": "Cc1[nH]c2ccccc2c1CC(=O)NC(Cc1ccccc1)C(=O)N(C)c1ccc2[nH]ncc2c1", "note": "(centres unmarked) [CX16, N-(1H-indazol-5-yl)-N-methyl-2-(2-(2-methyl-1H-indol-3-yl)acetamido)-3-phenylpropanamide]", "values": [{"measurement": "kd", "setting": "[1]; racemic compounds", "result": "1.21 ± 0.037 × 10^−2 s^−1"}]}
{"compound": "CN(C(=O)C(Cc1ccccc1)NC(=O)Cc1n[nH]c2c(N)cccc12)c1ccc2[nH]ncc2c1", "note": "(centres unmarked) [CX17, 2-(2-(7-amino-1H-indazol-3-yl)acetamido)-N-(1H-indazol-5-yl)-N-methyl-3-phenylpropanamide]", "values": [{"measurement": "IC50 relative to predicted and experimentally determined affinity", "setting": "HIV-1 pseudoviruses; racemic compound, IC50 higher than affinity", "result": "approximately 5 fold"}]}
{"compound": "Cc1[nH]c2ccccc2c1CC(=O)NC(Cc1ccccc1)C(=O)N(C)c1ccccc1", "note": "(centres unmarked) [PF-74, reference compound]", "values": [{"measurement": "kd", "setting": "[1]; racemic compounds", "result": "2.93 ± 0.182 × 10^−2 s^−1"}]}
{"compound": "CN(C(=O)[C@@H](Cc1ccccc1)NC(=O)Cc1c[nH]c2c(N)cccc12)c1ccccc1", "note": "[R-CX15, (R)-2-(2-(7-Amino-1H-indol-3-yl)acetamido)-N-methyl-N,3-diphenylpropanamide]", "values": [{"measurement": "binding to CA hexamer via SPR (in words)", "setting": "[1]; [3]", "result": "little to no binding interactions"}]}
{"compound": "Cc1[nH]c2ccccc2c1CC(=O)N[C@H](Cc1ccccc1)C(=O)N(C)c1ccc2[nH]ncc2c1", "note": "[R-CX16, (R)-N-(1H-Indazol-5-yl)-N-methyl-2-(2-(2-methyl-1H-indol-3-yl)acetamido)-3-phenylpropanamide]", "values": [{"measurement": "binding to CA hexamer via SPR (in words)", "setting": "[1]; [3]", "result": "little to no binding interactions"}]}
{"compound": "CN(C(=O)[C@@H](Cc1ccccc1)NC(=O)Cc1n[nH]c2c(N)cccc12)c1ccc2[nH]ncc2c1", "note": "[R-CX17, (R)-2-(2-(7-amino-1H-indazol-3-yl)acetamido)-N-(1H-indazol-5-yl)-N-methyl-3-phenylpropanamide]", "values": [{"measurement": "binding to CA hexamer via SPR (in words)", "setting": "[1]; [3]", "result": "little to no binding interactions"}]}
{"compound": "Cc1[nH]c2ccccc2c1CC(=O)N[C@H](Cc1ccccc1)C(=O)N(C)c1ccccc1", "note": "[R-PF-74, (R)-N-methyl-2-(2-(2-methyl-1H-indol-3-yl)acetamido)-N,3-diphenylpropanamide, reference compound]", "values": [{"measurement": "binding to CA hexamer via SPR (in words)", "setting": "[1]; [3]", "result": "little to no binding interactions"}]}
{"compound": "CN(C(=O)[C@H](Cc1ccccc1)NC(=O)Cc1c[nH]c2c(N)cccc12)c1ccccc1", "note": "[S-CX15, (S)-2-(2-(7-Amino-1H-indol-3-yl)acetamido)-N-methyl-N,3-diphenylpropanamide]", "values": [{"measurement": "binding to CA hexamer via SPR (in words)", "setting": "[1]; [3]", "result": "robust binding"}, {"measurement": "kd", "setting": "[1]; [3]", "result": "6.60 ± 0.328 × 10^−2 s^−1"}, {"measurement": "Fold Increase (over S-PF-74)", "setting": "[2]", "result": 30.8, "unit": "fold"}]}
{"compound": "Cc1[nH]c2ccccc2c1CC(=O)N[C@@H](Cc1ccccc1)C(=O)N(C)c1ccc2[nH]ncc2c1", "note": "[S-CX16, (S)-N-(1H-Indazol-5-yl)-N-methyl-2-(2-(2-methyl-1H-indol-3-yl)acetamido)-3-phenylpropanamide]", "values": [{"measurement": "binding to CA hexamer via SPR (in words)", "setting": "[1]; [3]", "result": "robust binding"}, {"measurement": "improvement in affinity over S-PF-74", "setting": "[1]; [3]", "result": "> 2", "unit": "fold"}, {"measurement": "kd", "setting": "[1]; [3]", "result": "1.09 ± 0.043 × 10^−2 s^−1"}, {"measurement": "Fold Increase (over S-PF-74)", "setting": "[2]", "result": 2.0, "unit": "fold"}]}
{"compound": "CN(C(=O)[C@H](Cc1ccccc1)NC(=O)Cc1n[nH]c2c(N)cccc12)c1ccc2[nH]ncc2c1", "note": "[S-CX17, (S)-2-(2-(7-amino-1H-indazol-3-yl)acetamido)-N-(1H-indazol-5-yl)-N-methyl-3-phenylpropanamide]", "values": [{"measurement": "binding to CA hexamer via SPR (in words)", "setting": "[1]; [3]", "result": "robust binding"}, {"measurement": "kd", "setting": "[1]; [3]", "result": "9.66 ± 0.145 × 10^−2 s^−1"}, {"measurement": "Fold Increase (over S-PF-74)", "setting": "[2]", "result": 204, "unit": "fold"}, {"measurement": "change of antiviral potency relative to parental compound", "setting": "HIV-1 pseudoviruses; slightly diminished potency", "result": "~3.5", "unit": "fold"}]}
{"compound": "Cc1[nH]c2ccccc2c1CC(=O)N[C@@H](Cc1ccccc1)C(=O)N(C)c1ccccc1", "note": "[S-PF-74, (S)-N-methyl-2-(2-(2-methyl-1H-indol-3-yl)acetamido)-N,3-diphenylpropanamide, reference compound]", "values": [{"measurement": "binding to CA hexamer via SPR (in words)", "setting": "[1]; [3]", "result": "robust binding"}, {"measurement": "kd", "setting": "[1]; [3]", "result": "2.92 ± 0.111 × 10^−2 s^−1"}]}
